Test results as given in ChEMBL document CHEMBL3301361, “Experimental in vitro DMPK and physicochemical data on a set of publicly disclosed compounds”.
Values after ≈ are worked out from the molar mass of the structure shown. Each block holds one compound with its values, some of them ahead of it.

Tests used:
in vitro [1] = conditions: human, hepatocytes
physchem [2] = conditions: pH 7.4 buffer
in vitro [3] = conditions: hepatocytes
in vitro [4] = conditions: human
physchem [5] = test: physchem
[6] = buffer, pH 7.4
physchem [7] = test: physchem; remark: listed apart in the source
in vitro [8] = conditions: human, plasma, PPB
in vitro [9] = conditions: SD, HW or BN, rat, plasma
in vitro [10] = conditions: Beagle, dog, plasma
physchem [11] = conditions: octan-1-ol/water, pH 7.4, LogD7.4
physchem [12] = test: physchem; remark: listed apart in the source
physchem [13] = test: physchem; remark: listed apart in the source
in vitro [14] = conditions: mouse, plasma
in vitro [15] = conditions: Dunkin Hartley, guinea pig, plasma

hepatocyte CLint (in vitro [1]): 55 µL/min/1e6 cells | solubility thermodynamic (physchem [2]): 1 µM (≈ 0.37 µg/mL) | hepatocyte CLint (in vitro [3]): 69.2 µL/min/1e6 cells | microsomal CLint (in vitro [4]; liver microsomes): 33.9 µL/min/mg | pKa (physchem [5]): 9.55
Structure (SMILES): CC/C(=C(/c1ccc(O)cc1)c1ccc(/C=C/C(=O)O)cc1)c1ccccc1

pKa (physchem [5]): 3.7
Structure (SMILES): CCCc1c2nc(C(=O)O)cc(Cl)c2cc2c(=O)cc(C(=O)O)oc12

LogD7.4 [6]: 3.37
Structure (SMILES): CCN(CC)c1ccc(-c2nn3c(-c4n[nH]c5c4CCC5)nnc3s2)cc1

pKa (physchem [7]): < 2 | pKa (physchem [5]): 7.3
Structure (SMILES): O=C(O)c1cc(=O)c2ccc(O)cc2o1

LogD7.4 [6]: -0.87 | microsomal CLint (in vitro [4]; liver microsomes): < 3 µL/min/mg
Structure (SMILES): CS(=O)(=O)c1ccc(-c2cc(C(F)(F)F)ccc2OCC(=O)O)cc1

LogD7.4 [6]: -0.66
Structure (SMILES): CCS(=O)(=O)c1cccc(-c2cc(C(F)(F)F)ccc2OCC(=O)O)c1

LogD7.4 [6]: -0.59 | microsomal CLint (in vitro [4]; liver microsomes): < 3 µL/min/mg
Structure (SMILES): Cc1cc(N(C)S(C)(=O)=O)ccc1-c1cc(C(F)(F)F)ccc1OCC(=O)O

LogD7.4 [6]: -1.17
Structure (SMILES): CN(c1ccc(-c2cc(F)ccc2OCC(=O)O)c(Cl)c1)S(C)(=O)=O

LogD7.4 [6]: -0.52 | fraction unbound at 5 h (in vitro [8]): 0.0418 | fraction unbound at 5 h (in vitro [9]): 0.0499
Structure (SMILES): CS(=O)(=O)c1ccc(-c2cc(C(F)(F)F)ccc2OCC(=O)O)c(Cl)c1

LogD7.4 [6]: -0.78 | fraction unbound at 5 h (in vitro [8]): 0.0274 | microsomal CLint (in vitro [4]; liver microsomes): < 3 µL/min/mg
Structure (SMILES): CCS(=O)(=O)c1ccc(-c2cc(Cl)ccc2OCC(=O)O)cc1

LogD7.4 [6]: -0.75 | fraction unbound at 5 h (in vitro [8]): 0.0251 | fraction unbound at 5 h (in vitro [9]): 0.035
Structure (SMILES): CS(=O)(=O)c1ccc(-c2cc(Cl)ccc2OCC(=O)O)c(Cl)c1

LogD7.4 [6]: -0.92 | hepatocyte CLint (in vitro [1]): < 3 µL/min/1e6 cells | fraction unbound at 5 h (in vitro [8]): 0.0488 | fraction unbound at 5 h (in vitro [10]): 0.0084 | pKa (physchem [7]): 3 | hepatocyte CLint (in vitro [3]): 4.24 µL/min/1e6 cells | microsomal CLint (in vitro [4]; microsomes): < 3 µL/min/mg | fraction unbound at 5 h (in vitro [9]): 0.0568
Structure (SMILES): CCS(=O)(=O)c1ccc(-c2cc(Cl)ccc2OCC(=O)O)c(F)c1

LogD7.4 [6]: -0.65
Structure (SMILES): CCS(=O)(=O)c1ccc(-c2cc(Cl)ccc2OCC(=O)O)c(C)c1

logD (physchem [11]): -0.83 | pKa (physchem [7]): 2.8 | pKa (physchem [5]): 9.8
Structure (SMILES): Cc1c(S(=O)(=O)c2ccc(Cl)cc2)c2c(NS(C)(=O)=O)cccc2n1CC(=O)O

LogD7.4 [6]: -0.28
Structure (SMILES): O=c1[nH]c2c(O)ccc([C@@H](O)CNCCc3cccc(CN4CCCC4)c3)c2s1

logD (physchem [11]): 2.27 | pKa (physchem [12]): 9 | hepatocyte CLint (in vitro [3]): 9.88 µL/min/1e6 cells | pKa (physchem [13]): 5.7 | microsomal CLint (in vitro [4]; liver microsomes): 24 µL/min/mg
Structure (SMILES): O=C([C@H]1CCCCN1)N1CCN(c2nc(NCc3ccc(Cl)cc3Cl)c3cccnc3n2)CC1

pKa (physchem [7]): 3.81 | pKa (physchem [5]): 8.57
Structure (SMILES): O=C(O)c1cc(O)cc(Cl)c1

fraction unbound at 5 h (in vitro [8]): 0.0521 | solubility thermodynamic (physchem [2]): 53.7 µM (≈ 27.7 µg/mL) | pKa (physchem [12]): 8.9 | fraction unbound at 5 h (in vitro [10]): 0.166 | pKa (physchem [13]): 7 | fraction unbound at 5 h (in vitro [14]): 0.197 | fraction unbound at 5 h (in vitro [9]): 0.0968
Structure (SMILES): N#Cc1ccc(C[C@@H](C(=O)O)N2CCC(CN3CCC(Oc4ccc(Cl)c(Cl)c4)CC3)CC2)cc1

solubility thermodynamic (physchem [2]): 12.3 µM (≈ 6.22 µg/mL) | pKa (physchem [12]): 9.2 | pKa (physchem [13]): 7.55 | microsomal CLint (in vitro [4]; liver microsomes): < 3 µL/min/mg
Structure (SMILES): Cc1ccccc1C[C@@H](C(=O)O)N1CCC(CN2CCC(Oc3ccc(Cl)c(Cl)c3)CC2)CC1

logD (physchem [11]): 2.23 | pKa (physchem [12]): 9.1 | pKa (physchem [13]): 6.5 | microsomal CLint (in vitro [4]; liver microsomes): 6 µL/min/mg
Structure (SMILES): O=C(O)C(c1ccccc1)N1CCC(N2CCC(Oc3ccc(Cl)c(Cl)c3)CC2)CC1 (stereo unspecified)

logD (physchem [11]): 2.17 | pKa (physchem [12]): 9.6 | pKa (physchem [7]): 3 | pKa (physchem [13]): 7.7 | microsomal CLint (in vitro [4]; microsomes): < 3 µL/min/mg
Structure (SMILES): O=C(O)C(c1ccccc1)N1CCC(CN2CCC(Oc3ccc(Cl)c(Cl)c3)CC2)CC1 (stereo unspecified)

pKa (physchem [12]): 8.9 | pKa (physchem [7]): 3.2 | pKa (physchem [13]): 7.7 | microsomal CLint (in vitro [4]; liver microsomes): 8 µL/min/mg
Structure (SMILES): O=C(O)c1ccccc1N1CCC(CN2CCC(Oc3ccc(Cl)c(Cl)c3)CC2)CC1

pKa (physchem [12]): 9.6 | pKa (physchem [7]): 3.5 | pKa (physchem [13]): 7.7 | microsomal CLint (in vitro [4]; microsomes): < 3 µL/min/mg
Structure (SMILES): O=C(O)c1cccc(CN2CCC(CN3CCC(Oc4ccc(Cl)c(Cl)c4)CC3)CC2)c1

solubility thermodynamic (physchem [2]): 13.5 µM (≈ 6.63 µg/mL) | pKa (physchem [12]): 9.25 | fraction unbound at 5 h (in vitro [10]): 0.11 | pKa (physchem [7]): 3.1 | pKa (physchem [13]): 7.75 | microsomal CLint (in vitro [4]; liver microsomes): < 3 µL/min/mg | fraction unbound at 5 h (in vitro [14]): 0.154 | fraction unbound at 5 h (in vitro [9]): 0.183 | fraction unbound at 5 h (in vitro [15]): 0.58
Structure (SMILES): O=C(O)[C@H](Cc1ccccc1)N1CCC(CN2CCC(Oc3ccc(Cl)c(Cl)c3)CC2)CC1

fraction unbound at 5 h (in vitro [8]): 0.314 | pKa (physchem [12]): 9.3 | pKa (physchem [13]): 7 | microsomal CLint (in vitro [4]; liver microsomes): < 3 µL/min/mg
Structure (SMILES): O=C(O)[C@@H](Cc1ccccc1)N1CCC(CN2CCC(Oc3ccc(Cl)c(Cl)c3)CC2)CC1

fraction unbound at 5 h (in vitro [8]): 0.0467 | logD (physchem [11]): 1.55 | pKa (physchem [12]): 10 | hepatocyte CLint (in vitro [3]): 9 µL/min/1e6 cells | pKa (physchem [13]): 9 | microsomal CLint (in vitro [4]; microsomes): 15 µL/min/mg
Structure (SMILES): O=C(NCC12CC3CC(CC(C3)C1)C2)c1cc(CN2CC3CNCC(C2)O3)ccc1Cl

logD (physchem [11]): 2.89 | pKa (physchem [12]): 5.3 | hepatocyte CLint (in vitro [3]): > 150 µL/min/1e6 cells | pKa (physchem [13]): 3 | microsomal CLint (in vitro [4]; liver microsomes): 86 µL/min/mg
Structure (SMILES): COc1ccnc(CSc2nc3ccccc3[nH]2)c1
